Reference: EPA's ToxValDB 9.5
Several values for one entry are separate records, joined by “and”; a condition that tells them apart may be missing. Equal entries are not always repeated.

Test system: Rattus norvegicus
Conditions: for LC50 / LD50: acute
[1] = reproduction developmental, inhalation, Wistar
[2] = developmental, oral, gavage, Sprague-Dawley
[3] = reproduction developmental, oral, gavage, F, Sprague-Dawley
[4] = subchronic, oral, gavage, Sprague-Dawley
[5] = reproduction developmental, duration: 41 days, oral, gavage, F, Crj:CD
[6] = reproduction developmental, duration: 41 days, oral, gavage, M, Crj:CD

`CC=CC` [2-Butene] was tested, and the LC50 (inhalation, Wistar) was over 22900 mg/m3, the LOAEL [1] was 11500 mg/m3 and the NOAEL [1] was 5740 mg/m3.
`CCCCCCCCCCCCCCCCCC(=O)OCCO` [2-Hydroxyethyl octadecanoate] gave an LD50 (oral, gavage, Wistar) of over 5000 mg/kg.
For `C=C(C)COc1ccccc1O` [2-[(2-methyl-2-propenyl)oxy]phenol], the LD50 (oral, gavage, Sprague-Dawley) was 2840 mg/kg and 2940 mg/kg and 3220 mg/kg and the NOAEL (reproduction developmental, oral, gavage, Sprague-Dawley) was over 720 mg/kg-day.
Work on `Cc1cccc(C#N)c1` [3-Methylbenzonitrile] yielded an LD50 (oral, Sprague-Dawley) of 3000 mg/kg.
With `C=C(C)C(=O)OCC[N+](C)(C)C.[Cl-]` [(2-(Methacryloyloxy)ethyl)trimethylammonium chloride] the LD50 (oral, gavage, Sprague-Dawley) was over 2000 mg/kg, the NOAEL (short-term, duration: 28 days, oral, diet, F, Crj:CD) was over 1000 mg/kg-day and the NOAEL (short-term, duration: 28 days, oral, diet, M, Crj:CD) was over 1000 mg/kg-day.
`CC/C=C\C#N` [(2Z)-2-Pentenenitrile] showed an LC50 (inhalation, CRL:CD BR) of 2820 mg/m3, an NOAEL (short-term, duration: 28 days, inhalation, CRL:CD BR) of 995 mg/m3 and an NOAEL (short-term, duration: 28 days, inhalation, F, CRL:CD BR) of 9.95 mg/m3. The NOAEL (short-term, duration: 28 days, inhalation, M, CRL:CD BR) was 9.95 mg/m3.
Molecule `O=C(O)CCC(=O)O` [Butanedioic acid] has an LD50 (oral, gavage) of 2260 mg/kg, an LD50 (oral, gavage, Fischer 344) of over 8000 mg/kg and an LOAEL (developmental, injection, intramuscular) of 500 mg/kg-day.
In the case of `O=C(OCCOCCOC(=O)c1ccccc1)c1ccccc1` [Diethylene glycol dibenzoate], the NOAEL (developmental, duration: 38 weeks, oral, diet, Sprague-Dawley) was 3300 ppm, the NOAEL (reproduction developmental, duration: 38 weeks, oral, diet, F, Sprague-Dawley) was 10000 ppm and the NOAEL (reproduction developmental, duration: 38 weeks, oral, diet, Sprague-Dawley, generation: F0) was 10000 ppm.
`CCCCCCCCCCCCCOC(=O)c1ccccc1C(=O)OCCCCCCCCCCCCC` [Ditridecyl phthalate] gave an LD50 (oral, gavage, Sprague-Dawley) of over 2000 mg/kg, an NOAEL [2] of 250 mg/kg-day and an NOAEL [3] of 50 mg/kg-day. It also gave an NOAEL (reproduction developmental, oral, gavage, M, Sprague-Dawley) of 250 mg/kg-day, an NOAEL (reproduction developmental, oral, gavage, Sprague-Dawley, generation: F1) of 250 mg/kg-day and an LOAEL [4] of 50 mg/kg-day. The NOAEL [4] was 10 mg/kg-day.
Molecule `CC(C)CCCCC(=O)O` [Isooctanoic acid] has an NOAEL [2] of 800 mg/kg-day, an NOAEL (reproduction developmental, oral, diet, F, Sprague-Dawley) of 7500 ppm and an NOAEL (reproduction developmental, oral, diet, Sprague-Dawley, generation: F1) of 7500 ppm. The NOAEL [3] was 400 mg/kg-day.
`COCO` [Methoxymethanol] was tested, and the LD50 (oral, gavage, Crj:CD) was 1270 mg/kg, the NOAEL (developmental, oral, gavage, Crj:CD) was 300 mg/kg-day and the LOAEL [5] was 300 mg/kg-day. It also gave an NOAEL [5] of 60 mg/kg-day, an LOAEL [6] of 60 mg/kg-day and an NOAEL [6] of 12 mg/kg-day. It also gave an NOAEL (reproduction developmental, oral, gavage, Crj:CD) of 300 mg/kg-day, an NOAEL (reproduction developmental, oral, gavage, F, Crj:CD) of 60 mg/kg-day and an NOAEL (reproduction developmental, oral, gavage, M, Crj:CD) of 12 mg/kg-day.
In the case of `CCCCCCCCCCCCOCCCNCCCN` [N1-[3-(Dodecyloxy)propyl]-1,3-propanediamine], the LD50 (oral, gavage) was 378 mg/kg and 299 mg/kg.
`CCCCCCCCCCCCCCCCCCN(C)C` [N,N-Dimethyl-1-octadecanamine] was tested, and the LD50 (oral, gavage) was 2120 mg/kg.
In the case of `O[B-](c1ccccc1)(c1ccccc1)c1ccccc1.[Na+]` [Sodium hydroxytriphenylborate], the LD50 (oral, gavage, Sprague-Dawley) was 1240 mg/kg.
`CC(C)CCCCCCOC(=O)c1ccc(C(=O)OCCCCCCC(C)C)c(C(=O)OCCCCCCC(C)C)c1` [Triisononyl trimellitate] was tested, and the LD50 (oral, Sprague-Dawley) was over 10000 mg/kg.
`CC(C)(C)CC(C)(C)N` [tert-Octylamine] showed an LD50 (oral, gavage, CRL:CD BR) of 218 mg/kg.
